Measurements from ChEMBL document CHEMBL5370598, “[3H]UR-JG102-A Radiolabeled Cyclic Peptide with High Affinity and Excellent Selectivity for the Neuropeptide Y Y4 Receptor” (J Med Chem, 2023).
Starred links: 1 amine or outer side, 2 acyl side, 3 side chain; linkers in the order of their positions; H or OH if unused. Positions of bridges follow the written chain, without caps; N, C: chain ends. Non-standard residues stand in square brackets, D forms with d. Residues, ends and D or L forms follow the SMILES beside them. *: point of attachment. Arg(Nω-CO) = N/C(=N\C(=O)[*:3])NCCC[C@H](N[*:1])C(=O)[*:2]; Ethylenediamine = C(CN[*:2])N[*:1]; Propionyl = CCC(=O)*

Columns and labels:
[1] = molecular target: T1, Neuropeptide Y receptor type 4 (Homo sapiens, UniProt P50391); assay: (§1) Displacement of [3H]-(9S,12S,15S,19R,E)-4-amino-N-((S)-1-(((S)-1-(((S)-1-amino-3-(4-hydroxyphenyl)-1-oxopropan-2-yl)amino)-5-guanidino-1-oxopentan-2-yl)amino)-4-methyl-1-oxopentan-2-yl)-15-(3-guanidinopropyl)-12-(4-hydroxybenzyl)-2,11,14,17,20-pentaoxo-19-(4-(propanamido-2,3-t2)butanamido)-1,3,5,10,13,16,21-heptaazacyclopentacos-3-ene-9-carboxamide from human Y4R expressed in CHO cells coexpressing Gqi5-mtAEQ under isotonic sodium containing buffer condition; format: cell-based
T1 sequence (P50391 whole entry): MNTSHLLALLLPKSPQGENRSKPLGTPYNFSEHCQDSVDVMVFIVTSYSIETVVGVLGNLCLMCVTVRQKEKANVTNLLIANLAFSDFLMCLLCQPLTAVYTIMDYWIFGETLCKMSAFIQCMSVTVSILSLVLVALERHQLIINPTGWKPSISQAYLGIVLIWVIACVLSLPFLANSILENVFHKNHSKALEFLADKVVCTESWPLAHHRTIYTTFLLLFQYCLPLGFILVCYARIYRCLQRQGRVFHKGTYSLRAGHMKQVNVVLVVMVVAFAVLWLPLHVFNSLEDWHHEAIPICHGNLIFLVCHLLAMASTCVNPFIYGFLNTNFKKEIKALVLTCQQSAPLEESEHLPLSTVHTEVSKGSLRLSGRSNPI

[2] = molecular target: T1, Neuropeptide Y receptor type 4; assay: Agonist activity at human Y4R expressed in HEK293T cells incubated for 60 mins by cAMP CAMYEN assay; format: functional, cell-based
[3] = molecular target: T1, Neuropeptide Y receptor type 4; assay: Agonist activity at human Y4R expressed in HEK293T cells incubated for 60 mins by cAMP CAMYEN assay relative to control; format: functional, cell-based; conditions: filed as agonist
[4] = molecular target: T1, Neuropeptide Y receptor type 4; assay: as §1, with “hypotonic” for “isotonic”, “free” for “containing”; format: cell-based
[5] = molecular target: T1, Neuropeptide Y receptor type 4; assay: Agonist activity at human Y4R expressed in CHO cells co-expressing Gqi5-mtAEQ by calcium2+ aequorin assay relative to control; format: functional, cell-based; conditions: filed as agonist
[6] = molecular target: T1, Neuropeptide Y receptor type 4; assay: Displacement of [3H]UR-KK200 from human Y4R expressed in CHO cells co-expressing Gqi5-mtAEQ; format: cell-based; conditions: read-out: Ki
[7] = molecular target: T1, Neuropeptide Y receptor type 4; assay: Agonist activity at human Y4R expressed in HEK293T cells by miniGsi assay relative to control; format: functional, cell-based; conditions: filed as agonist
[8] = molecular target: T1, Neuropeptide Y receptor type 4; assay: Agonist activity at human Y4R expressed in HEK293T cells by miniGsi assay; format: functional, cell-based
[9] = molecular target: T2, Neuropeptide Y receptor type 5 (Homo sapiens, UniProt Q15761); assay: Displacement of [3H]propionyl-pNPY from human Y5R expressed in HEC-1B cells; format: cell-based, HEC-1B cell line
T2 sequence (Q15761 whole entry): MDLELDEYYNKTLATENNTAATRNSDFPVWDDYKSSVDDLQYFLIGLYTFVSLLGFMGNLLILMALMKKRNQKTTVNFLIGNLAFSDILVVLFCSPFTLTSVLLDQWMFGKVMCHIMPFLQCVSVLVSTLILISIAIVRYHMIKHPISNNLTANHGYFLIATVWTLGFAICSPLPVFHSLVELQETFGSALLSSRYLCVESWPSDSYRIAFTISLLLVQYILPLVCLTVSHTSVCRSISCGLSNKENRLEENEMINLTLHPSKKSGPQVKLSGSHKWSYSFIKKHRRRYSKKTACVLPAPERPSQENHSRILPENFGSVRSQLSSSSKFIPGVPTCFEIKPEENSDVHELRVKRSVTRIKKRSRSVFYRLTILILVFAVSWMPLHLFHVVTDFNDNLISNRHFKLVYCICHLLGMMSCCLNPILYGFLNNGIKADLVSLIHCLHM

[10] = molecular target: T3, Neuropeptide Y receptor type 2 (Homo sapiens, UniProt P49146); assay: Displacement of [3H]propionyl-pNPY from human Y2R expressed in CHO cells; format: cell-based
T3 sequence (P49146 whole entry): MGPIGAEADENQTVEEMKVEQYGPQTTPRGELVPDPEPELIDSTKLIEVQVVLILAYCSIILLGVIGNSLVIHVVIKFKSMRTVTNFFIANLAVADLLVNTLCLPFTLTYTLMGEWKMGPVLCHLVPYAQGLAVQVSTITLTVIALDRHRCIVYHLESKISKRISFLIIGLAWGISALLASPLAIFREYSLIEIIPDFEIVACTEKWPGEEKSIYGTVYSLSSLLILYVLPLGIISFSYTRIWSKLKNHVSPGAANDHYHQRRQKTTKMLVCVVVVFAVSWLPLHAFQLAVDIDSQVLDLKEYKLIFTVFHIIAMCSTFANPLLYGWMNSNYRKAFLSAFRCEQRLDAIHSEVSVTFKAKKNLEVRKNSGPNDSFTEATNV

[11] = molecular target: T4, Neuropeptide Y receptor type 1 (Homo sapiens, UniProt P25929); assay: Displacement of [3H]UR-MK299 from human Y1R expressed in SK-N-MC cells; format: cell-based
T4 sequence (P25929 whole entry): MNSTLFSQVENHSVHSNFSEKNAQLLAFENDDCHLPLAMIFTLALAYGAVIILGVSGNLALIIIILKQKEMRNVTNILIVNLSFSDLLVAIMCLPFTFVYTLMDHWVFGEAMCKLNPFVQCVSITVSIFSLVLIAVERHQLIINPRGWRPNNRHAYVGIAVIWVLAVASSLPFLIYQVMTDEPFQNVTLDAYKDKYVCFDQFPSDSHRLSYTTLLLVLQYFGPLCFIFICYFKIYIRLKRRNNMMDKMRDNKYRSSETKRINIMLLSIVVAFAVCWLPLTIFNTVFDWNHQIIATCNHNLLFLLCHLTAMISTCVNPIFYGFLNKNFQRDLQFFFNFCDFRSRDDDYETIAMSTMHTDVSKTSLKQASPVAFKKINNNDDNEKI

[12] = molecular target: T1, Neuropeptide Y receptor type 4; assay: Agonist activity at human Y4R expressed in CHO cells co-expressing Gqi5-mtAEQ by calcium2+ aequorin assay; format: functional, cell-based

SMILES	EC50 ([2]; read-out: EC50) [nM]	EC50 ([2]; read-out: pEC50 (converted)) [nM]	Emax [3] [%]	Emax [5] [%]	Ki [6] [nM]	Emax [7] [%]	EC50 [8] [nM]	Ki ([9]; hec-1b cell line, read-out: Ki) [nM]	Ki ([9]; read-out: pKi (converted)) [nM]	Ki ([10]; cho, read-out: Ki) [µM]	Ki ([10]; read-out: pKi (converted)) [µM]	Ki ([11]; read-out: pKi (converted)) [nM]	Ki ([11]; sk-n-mc, read-out: Ki) [nM]	EC50 ([12]; read-out: EC50) [nM]	EC50 ([12]; read-out: pEC50 (converted)) [nM]	other results
CC(C)C[C@H](NC(=O)[C@@H]1CCCNC(=N)NC(=O)NCCCCNC(=O)CCC(=O)N[C@@H](CCCNC(=N)N)C(=O)N[C@@H](Cc2ccc(O)cc2)C(=O)N1)C(=O)N[C@@H](CCCNC(=N)N)C(=O)N[C@@H](Cc1ccc(O)cc1)C(N)=O	0.17	0.162	113	100	–	–	–	–	–	–	–	–	–	–	–	Ki ([1]; read-out: Ki): 0.076 nM; Ki ([1]; read-out: pKi (converted)): 0.0741 nM; Ki ([4]; read-out: Ki): 0.011 nM; Ki ([4]; read-out: pKi (converted)): 0.00912 nM
CCC(=O)N[C@@H]1CC(=O)N[C@@H](CCCNC(=N)N)C(=O)N[C@@H](Cc2ccc(O)cc2)C(=O)N[C@H](C(=O)N[C@@H](CC(C)C)C(=O)N[C@@H](CCCNC(=N)N)C(=O)N[C@@H](Cc2ccc(O)cc2)C(N)=O)CCCN/C(N)=N/C(=O)NCCCCNC1=O	0.063	0.0501	85	74	0.066	51	1.6	> 1000	> 1000	> 10	> 10	> 1000	> 1000	9	6.31	–
CC(C)C[C@H](NC(=O)[C@@H]1CCCN/C(N)=N/C(=O)NCCCCNC(=O)[C@H](N)CC(=O)N[C@@H](CCCNC(=N)N)C(=O)N[C@@H](Cc2ccc(O)cc2)C(=O)N1)C(=O)N[C@@H](CCCNC(=N)N)C(=O)N[C@@H](Cc1ccc(O)cc1)C(N)=O	–	–	–	79	0.041	56	1.1	> 1000	> 1000	> 10	> 10	> 1000	> 1000	8	–	–
CC(C)C[C@H](NC(=O)[C@@H]1CCCN/C(N)=N/C(=O)NCCNC(=O)CC[C@H](N)C(=O)N[C@@H](CCCNC(=N)N)C(=O)N[C@@H](Cc2ccc(O)cc2)C(=O)N1)C(=O)N[C@@H](CCCNC(=N)N)C(=O)N[C@@H](Cc1ccc(O)cc1)C(N)=O (H-ERY[Arg(Nω-CO)]LRY-NH2; linker 1-4 via Ethylenediamine)	–	–	–	65	0.17	67	10	> 1000	> 1000	> 10	> 10	> 1000	> 1000	60	–	–
CCC(=O)N[C@H]1CCC(=O)NCCNC(=O)/N=C(\N)NCCC[C@@H](C(=O)N[C@@H](CC(C)C)C(=O)N[C@@H](CCCNC(=N)N)C(=O)N[C@@H](Cc2ccc(O)cc2)C(N)=O)NC(=O)[C@H](Cc2ccc(O)cc2)NC(=O)[C@H](CCCNC(=N)N)NC1=O (Propionyl-ERY[Arg(Nω-CO)]LRY-NH2; linker 1-4 via Ethylenediamine)	0.41	–	86	66	0.26	70	19	> 1000	> 1000	–	> 3.16	> 1000	> 1000	71	–	Ki ([10]; read-out: Ki): > 3 µM
CC(C)C[C@H](NC(=O)[C@@H]1CCCN/C(N)=N/C(=O)NCCCCNC(=O)C[C@H](N)C(=O)N[C@@H](CCCNC(=N)N)C(=O)N[C@@H](Cc2ccc(O)cc2)C(=O)N1)C(=O)N[C@@H](CCCNC(=N)N)C(=O)N[C@@H](Cc1ccc(O)cc1)C(N)=O	–	–	–	70	0.33	55	4.7	> 1000	> 1000	> 10	> 10	> 3160	–	19	13.2	Ki ([11]; read-out: Ki): > 3000 nM
